Test results reported in paper PMC9757636, “The effectiveness of newly synthesized quaternary ammonium salts differing in chain length and type of counterion against priority human pathogens” (Scientific Reports, 2022).
Marks after values point to notes of the source that are not given here.

How the values were obtained:
[1] = Critical micelle concentration by conductometric measurements; format: physicochemical; conditions: aqueous solution, 25 °C
Experimental: Values of critical micelle concentrations (CMC) of cationic surfactants were measured conductrometrically. N5721 conductometer (Tel-Eko Projekt sp z o.o., Poland), equipped with N5981 probe, was calibrated using 0.1 M, 0.01 M and 0.001 M KCl aqueous solutions (conductivities equal to 1.287 S/m, 0.141 S/m and 0.0147 S/m, respectively) and used without temperature compensation mode (constant temperature 25 °C was kept during all calibration procedures and measurements). Values of specific conductivities of at least 15 different concentrations for each surfactant were measured and plotted versus concentration; the discontinuity point was used to determine critical micelle concentration.

[2] = test system: Salmonella typhimurium TA100; test: Mutagenicity (Ames test); format: cell-based; conditions: for Number of colonies: ± SD
Experimental: (§1) Two reference strains of Salmonella Typhimurium TA98 and Salmonella Typhimurium TA100, deficient in histidine synthesis, were used for this study according to the method proposed by Ames et al. with modifications. […] The mixture was mixed and poured onto a Davis minimal medium plate. The mixture without the test compound was used as a negative control. The positive control was a mixture of bacterial culture, biotin-histidine solution, and sodium azide (at a concentration of 15 μg/mL for strain TA100) or acriflavine (at a concentration of 100 μg/mL for strain TA98). Plates were incubated for 48 h at 37 °C, and then colonies were counted. The mutagenicity ratio (MR), the ratio of the number of revertants grown in the presence of the test compound to the number of spontaneously occurring revertants (negative control), was calculated. A mutagenic ratio equal to or greater than 1.7 indicates the mutagenic potential of the tested compounds. The study was performed in three times.

[3] = test system: Salmonella typhimurium TA98; test: Mutagenicity (Ames test); format: cell-based; conditions: for Number of colonies: ± SD
Experimental: as §1

[4] = test system: P. aeruginosa PAO1; test: Adhesion to glass; format: cell-based, Pseudomonas aeruginosa; conditions: concentration not given
[5] = test system: E. coli ATCC 11229; test: MIC/MBC microdilution; format: cell-based, Escherichia coli; conditions: E. coli ATCC 11229
Experimental: (§2) The minimum inhibitory concentration (MIC) of the tested monomeric QAS was performed using the microdilution method according to CLSI recommendation (M27-A3). Concentrations from 10 to 1280 µM were analyzed. Strains were incubated with or without compounds (growth control) for 24 h at 37 °C. Three independent replicates were performed. The MIC value was determined spectrophotometrically and the concentration that inhibited more than 90% of growth was determined. Optical density was measured at λ = 590 nm using a 96-well microplate reader (Bio-Rad Universal Hood II).
(§3) To determine the minimum bactericidal concentration (MBC), 10 µL of bacterial suspension incubated with monomeric QAS (MIC concentration and two times higher) was transferred to plates with LB (1% tryptone, 1% yeast extract, 0.5% NaCl) medium. […] The concentration that reduced 99.9% of microbial growth was determined as MBC[54].

[6] = test system: E. coli H64; test: MIC/MBC microdilution; format: cell-based, Escherichia coli; conditions: E. coli H64
Experimental: as §2, §3

[7] = test system: P. aeruginosa ATCC 27853; test: MIC/MBC microdilution; format: cell-based, Pseudomonas aeruginosa; conditions: P. aeruginosa ATCC 27853
Experimental: as §2, §3

[8] = test system: P. aeruginosa PAO1; test: MIC/MBC microdilution; format: cell-based, Pseudomonas aeruginosa
Experimental: as §2, §3

[9] = test system: S. epidermidis ATCC 35984; test: MIC/MBC microdilution; format: cell-based, Staphylococcus epidermidis
Experimental: as §2, §3

[10] = test system: S. epidermidis SI8; test: MIC/MBC microdilution; format: cell-based, Staphylococcus epidermidis
Experimental: as §2, §3

[11] = test system: S. epidermidis B374; test: Adhesion to stainless steel; format: cell-based, Staphylococcus epidermidis; conditions: 1280 µM, ranges given over several strains
[12] = test system: S. epidermidis ATCC 35984; test: Adhesion to polystyrene plate; format: cell-based, Staphylococcus epidermidis; conditions: 1280 µM, range given over two strains
Experimental: (§4) Adhesion analysis to polystyrene surfaces was determined according to the method of Rodrigues et al. with modifications. Polystyrene 96-well plates were incubated with the respective compound concentrations (10–1280 µM) for 4 h at 37 °C with 100 rpm shaking. The plates were then washed with miliQ and inoculated with 100 µL of bacterial suspension (OD = 0.4–0.6). Plates were incubated for 6 h at 37 °C with 100 rpm shaking. Wells were rinsed and fixed for 20 min at 60 °C. They were then […] with 0.1% crystal violet solution for 5 min. The wells were washed with miliQ until the unfixed dye was completely eluted. The absorbance at λ = 590 nm was measured using a reader (Bio-Rad Universal Hood II). The positive control was a surface not treated with QAS. Three independent trials were performed.

[13] = test system: S. epidermidis B374; test: Adhesion to polystyrene plate; format: cell-based, Staphylococcus epidermidis; conditions: 1280 µM
Experimental: as §4

[14] = test system: S. aureus MRSA R98; test: MIC/MBC microdilution; format: cell-based, Staphylococcus aureus
Experimental: as §2, §3

[15] = test system: S. aureus ATCC 6538; test: MIC/MBC microdilution; format: cell-based, Staphylococcus aureus; conditions: S. aureus ATCC 6538
Experimental: as §2, §3

[16] = 24 h, 37 °C, >90% growth inhibition
[17] = 99.9% reduction, read-out: Minimal bactericidal concentration (*MBC)
[18] = 24 h, 37 °C, >90% growth inhibition, read-out: Minimal inhibitory concentration (MIC)

CCCCCCCCCCCCN(C)CCC[N+](C)(C)C.COC(=O)[O-] [MeC12, [(3-dodecyilomethyloamine)propyl] trimethylammonium methylcarbonate]
CMC [1]: 0.014 mol/L
Mutagenicity index ([2]; ¼ MIC): 0.74
Number of colonies ([2]; ¼ MIC): 208 ± 17
Mutagenicity index ([2]; ½ MIC): 0.94
Number of colonies ([2]; ½ MIC): 264 ± 11.3
Mutagenicity index ([3]; ¼ MIC): 0.75
Number of colonies ([3]; ¼ MIC): 17 ± 3.6
Mutagenicity index ([3]; ½ MIC): 0.92
Number of colonies ([3]; ½ MIC): 21 ± 3.6
reduction of adhesion to glass [4]: approximately 20%
Minimal bactericidal concentration (*MBC) ([5]; 99.9% reduction): 640 *640 µM
Minimal inhibitory concentration (MIC) [5, 16]: 640 *640 µM
Minimal bactericidal concentration (*MBC) ([6]; 99.9% reduction): 640 *640 µM
Minimal inhibitory concentration (MIC) [6, 16]: 640 *640 µM
Minimal bactericidal concentration (*MBC) ([7]; 99.9% reduction): > 1280 * > 1280 µM
Minimal inhibitory concentration (MIC) [7, 16]: > 1280 * > 1280 µM
Minimal bactericidal concentration (*MBC) ([8]; 99.9% reduction): > 1280 * > 1280 µM
Minimal inhibitory concentration (MIC) [8, 16]: > 1280 * > 1280 µM
MBC [9, 17]: 640 µM
MIC [9, 18]: 320 µM
MBC [10, 17]: 640 µM
MIC [10, 18]: 320 µM
inhibition of adhesion to stainless steel [11]: 69–88%
reduced adhesion to polystyrene [12]: 25–46%
reduced adhesion to polystyrene [13]: 25–46%
Minimal bactericidal concentration (*MBC) ([14]; 99.9% reduction): 640 *640 µM
Minimal inhibitory concentration (MIC) [14, 16]: 640 *640 µM
MBC [15, 17]: 640 µM
MIC [15, 18]: 320 µM
